Laboratory results taken from PMC9313812, “The Pseudo‐Natural Product Rhonin Targets RHOGDI” (Angewandte Chemie (International Ed. in English), 2022).

Columns and labels:
[1] = biological target: T1, RHOGDI1-mediated extraction of RHOA (Homo sapiens, UniProt P52565); assay: Liposome sedimentation assay: displacement of prenylated GDP-bound RHOA by GST-RHOGDI1; type: biochemical; details: 50 μM compound
T1 construct: made in house; host or cells: RHOGDI1: E. coli; prenylated RHOA: insect cells (TNAO38)
Description: Supplementary Figure S4. Compound 7a impairs RHOGDI1 function. (a) Assay setup for the liposome sedimentation assay. (b) Displacement of prenylated GDP‐bound RAC1 from synthetic liposomes by GST-RHOGDI1 in the presence or absence of 50 μM 7a was measured using liposome floatation assay. Data is representative of three independent experiments.
Liposome-containing phase represented by fluorescent colour as result of 5% fluorescent NDB-PE was analysed by Western blotting. Data are representatives of three independent […]
experiments. (c-d) Displacement of prenylated
GDP‐bound RHO GTPases (RHOA and CDC42) from synthetic liposomes by GST‐RHOGDI1 […]
liposome sedimentation assay. Data is representative of three independent experiments. P: […]
Liposome sedimentation assay
Liposomes were prepared by self-assembly of the lipids (500 μg) containing 20% (w/w) phosphatidylethanolamine, 45% (w/w) phosphatidylcholine, 20% (w/w) phosphatidylserine, 10% (w/w) cholesterol, and 5% (w/w) phosphatidylinositol 4,5-bisphosphate. […] The resulting pellet and supernatant fractions were collected and analyzed by immunoblotting. […]
The resulting samples were centrifuged at 140000 x g for 1 h at 4 °C. The upper liposome‐ containing phase (detected by fluorescent NDB‐PE) was collected and analyzed by […]

PDEδ = biological target: T2, PDEδ (Homo sapiens, UniProt O43924); assay: Competition-based fluorescence polarization with fluorescein-labelled atorvastatin; type: binding; details: selectivity test
T2 construct: GST (N); made in house; host or cells: E. coli Rosetta 2
Description: RHOGDI1 displaced liposome -bound RAC1 from the surface of L1 chip with a koff of 0.016 […]
bound RAC1. Calculated rate constants by mono-exponential fitting of RU decays were 0.02 and 0.032 s-1 for RHOGDI1-mediated RAC1 displacement from the liposomes in the presence of 7a and 7d, respectively. (d) Competition-based fluorescence polarization experiments were performed by titration of 7a against 10 nM fluorescein-labelled atorvastatin and GST-PDEδ.
(e) Fluorescence polarization experiment using 10 nM probe 10 and titration of PDEδ.
(1 picture or pasted object on this page, not shown here)
Label-free quantification (LFQ) intensities were logarithmized (log2) and proteins, which were not three times quantified in at least one of the groups, were filtered off. […]
Fluorescence polarization
The binding of probe 10 to RHOGDI1-3 was confirmed by fluorescence polarization experiments. […] The change in fluorescence polarization was monitored at an excitation / emission wavelengths of 535 nm and 593 nm, respectively. […]
To determine the effect of 7a on the binding of RHOGDI1 to non-prenylated RAC1-GDP, fluorescence polarization measurements were performed by titrating 1 µM TAMRA-GDP-bound RAC1 with increasing concentrations of RHOGDI1 in the presence and absence of 50 µM 7a in buffer containing 30 mM Tris-HCl, pH 7.5, 150 mM NaCl, 5 mM MgCl2, 1% DMSO. […]

- Inhibition of RHOGDI1-mediated extraction of RHOA (in words) [1]: inhibited
- Competition with fluorescein-labelled atorvastatin for binding to PDEδ (in words) (PDEδ): does not compete
SMILES: COC(=O)C1(C(CC(=O)c2ccccc2)c2ccccc2)N=C(c2ccc(Br)cc2)C2C(=O)N(C)C(=O)C21 (centres unmarked) [7a]
